Experimental data: patent US20260258025A1, “INHIBITORS OF TDP-43 AND TAU AGGREGATION” (Aquinnah Pharmaceuticals, inc., priority 2023, published 2026)
Entries after “also recorded” stand apart in the source; their conditions may differ.

Test system: TDP-43 nuclear localization
Experiment: TDP-43 localization analysis by immunofluorescence in MG-132 challenged iP11NA human motor neurons
Format: cell-based
Method: Cell culture and differentiation of iPS Cells into motor neurons. Pluripotent stem cells were grown with mTeSR Plus medium on tissue culture dishes coated with Matrigel, and maintained in 5% CO2 incubators at 37° C. Stem cells were passaged as small aggregates of cells after 1 mM EDTA treatment. […] was added to the cultures for 16-24 h after dissociation to prevent cell death. The iP11NA iPS cell line was acquired from ALSTEM. This cell line was generated from pre-made footprint-free human iPS cells with DOX inducible Ngn2 that has been stably integrated into the human AAVS1 “Safe Harbor” site, and provides a convenient means to differentiate human iPS cells into neurons rapidly and efficiently. Motor neuron differentiation was achieved using a modified 5-day strategy.
This approach relies on neural induction through small molecule inhibition of SMAD signaling, accelerated neural differentiation through forced Ngn2 expression, and motor neuron patterning through the activation of retinoic acid and Sonic Hedgehog signaling pathways. In brief, pluripotent stem cells were dissociated to single cells using accutase and plated at a density of 80,000 cells per cm^2 on Matrigel-coated culture plates with mTeSR Plus medium supplemented with ROCK inhibitor (10 μM Y-27632, ATCC). When cells reached 50% confluency, medium was changed to differentiation medium BrainPhys medium supplemented with N2-A, SM1, […]. This time point was defined as day 0 (d0) of motor neuron differentiation. Treatment with small molecules was carried out as follows: 2 μg/mL Doxycyline, 10 μM SB431542, 100 nM LDN-193189, […] and 1 μM Smoothend agonist and 10 uM Edu. […]
A dose-responsive effect was further tested for Compound 183 using quantitative imaging analysis on the CellInsight™ CX7 High Content Analysis Platform. By comparing the intensity of TDP-43 staining in the nucleus and cytoplasm of human motor neurons, we determined Compound 183 could maintain nuclear TDP-43 from 370 nM-10 μM in the proteasome challenged motor neurons (see FIG. 2).

Cc1cc(-c2ccc(C3CCN(C(C)C)CC3)cc2)sc1C(=O)N1CC[C@H](N)C1 [Compound 183, (S)-(3-aminopyrrolidin-1-yl)(5-(4-(1-isopropylpiperidin-4-yl)phenyl)-3-methylthiophen-2-yl)methanone]
nuclear TDP-43 staining (immunofluorescence) (500 nM Compound 183, pretreated 1 hour and during 1 μM MG-132 for 20 hours, human motor neurons): preventing TDP-43 nuclear clearance; also recorded: TDP-43 staining in the nucleus was observed that was much more similar to that of unchallenged neurons | maintenance of nuclear TDP-43, dose response (nuclear vs cytoplasmic TDP-43 staining intensity) (MG-132 1 μM challenged human motor neurons, CX7 quantitative imaging, effective concentration range): maintaining nuclear TDP-43 in a dose-dependent manner
